The results in this text go back to the NIST ThermoML archive (doi:10.1021/acs.jced.8b00693).

Each structure is given as a SMILES string. ± gives the expanded uncertainty stated by the source.

Data set [1] is described as follows: wn = mass fraction of the nth substance listed. The note with it: 298.15 K, 100 kPa, Liquid, Pycnometric method.
The nature of data set [2]: refractive index (Na D-line) (dimensionless); wn = mass fraction of the nth substance listed. The note with it: 298.15 K, 100 kPa, Liquid, Standard Abbe refractometry.

On to `O=S(=O)([O-])[O-].[Cs+].[Cs+]` [cesium sulfate] + O, for which the mass density – broadly, the mass of a sample divided by its volume – in data set [1] (w1 = 0.6463) was 2009.2 ± 24 kg/m3. The refractive index – broadly, the speed of light in vacuum divided by its phase velocity in the sample – in data set [2] (w1 = 0.6463) was determined as 1.4095 ± 0.002.

In the case of `O=S(=O)([O-])[O-].[Rb+].[Rb+]` [rubidium sulfate] + O, the mass density in data set [1] (w1 = 0.3365) was found to be 1363.1 ± 24 kg/m3. The refractive index in data set [2] (w1 = 0.3365) is recorded as 1.3649 ± 0.002.

On to `O=S(=O)([O-])[O-].[Na+].[Na+]` [sodium sulfate] + O, for which the mass density in data set [1] (w1 = 0.218) amounted to 1183 ± 24 kg/m3. In addition, the refractive index in data set [2] (w1 = 0.218) turned out to be 1.3628 ± 0.002.
